Our source for the GI50 and TGI values is PubChem BioAssay (NCI).

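48-hour exposure; five concentrations; linearly interpolated endpoints. The concentration for 50% growth inhibition is given as GI50. TGI: concentration producing complete growth inhibition.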

Test systems include SW-620 colon; HOP-62 NSCLC; HCC-2998 colon; OVCAR-5 ovarian; HCT-15 colon; SN12C renal; UO-31 renal; NCI-H226 lung; HT29 colon; NCI-H460 lung.
What all share (experiment): NCI anticancer screen, dose series, 48 h

Turning to `O=C1C=CC(=Nc2cc(Br)c(O)c(Br)c2)C=C1`, the GI50 is 15.8 µM with SW-620 colon; 28.4 µM in the test with HOP-62 NSCLC; 17.5 µM with HCC-2998 colon; 24.4 µM in the test with OVCAR-5 ovarian; 16.5 µM in the test with HCT-15 colon; 25.6 µM in the test with SN12C renal. Moreover, the GI50 is 22 µM in the test on UO-31 renal, 22.2 µM with NCI-H226 lung, 18 µM in the test on HT29 colon and 27.2 µM in the test with NCI-H460 lung. For the same molecule, the TGI was more than 100 µM with SW-620 colon; 76.1 µM with HOP-62 NSCLC; 34.6 µM in the test on HCC-2998 colon; 60.5 µM with OVCAR-5 ovarian; 43.8 µM in the test on HCT-15 colon; 84.1 µM with SN12C renal. For the same molecule, the TGI in the test on UO-31 renal was more than 100 µM; in the test with NCI-H226 lung, 59.6 µM; in the test on HT29 colon it was 35 µM; in the test on NCI-H460 lung it was 84.9 µM.
Turning to `Cc1cc(N2CCOCC2)nc(N[C@@H]2CCC[C@H](Nc3ccnc4cc(Cl)ccc34)C2)n1`, the GI50 was 2.07 µM with SW-620 colon; 1.73 µM in the test with HOP-62 NSCLC; 2.05 µM in the test on HCC-2998 colon; 3.1 µM with OVCAR-5 ovarian; 1.4 µM in the test on HCT-15 colon; 2.48 µM in the test with SN12C renal. The GI50 is 1.29 µM with UO-31 renal, 4.89 µM in the test with NCI-H226 lung, 2.13 µM with HT29 colon and 2.66 µM in the test with NCI-H460 lung. Moreover, the TGI stood at 5.36 µM in the test with SW-620 colon; 4.36 µM with HOP-62 NSCLC; 4.55 µM with HCC-2998 colon; 11.2 µM in the test on OVCAR-5 ovarian; 3.54 µM with HCT-15 colon; 8.68 µM in the test on SN12C renal. Moreover, the TGI was 2.63 µM in the test with UO-31 renal, 17.1 µM with NCI-H226 lung, 5.24 µM in the test on HT29 colon and 8.64 µM in the test with NCI-H460 lung.
As to `S=C(Nc1ccc(-c2nc3ccccc3[nH]2)cc1)Nc1ccc(-c2nc3ccccc3[nH]2)cc1`, the GI50 is more than 100 µM with SW-620 colon; more than 100 µM in the test with HOP-62 NSCLC; 45.8 µM with HCC-2998 colon; more than 100 µM in the test on OVCAR-5 ovarian; 61.1 µM with HCT-15 colon; 47.7 µM with SN12C renal. Besides, the GI50 in the test with UO-31 renal is 31.7 µM; with NCI-H226 lung it was 39.2 µM; in the test with HT29 colon, more than 100 µM; in the test on NCI-H460 lung, 65 µM. Moreover, the TGI with SW-620 colon, with HOP-62 NSCLC, with HCC-2998 colon, with OVCAR-5 ovarian, with HCT-15 colon and with SN12C renal was more than 100 µM throughout. For the same molecule, the TGI with UO-31 renal, in the test with NCI-H226 lung, in the test with HT29 colon and with NCI-H460 lung was more than 100 µM in each case.
In the case of `O=C(Nc1ccncc1)C(=O)c1cn(S(=O)(=O)c2ccc(Cl)cc2)c2ccccc12`, the GI50 was 1.35 µM with SW-620 colon; 1.73 µM in the test with HOP-62 NSCLC; 10.3 µM with HCC-2998 colon; more than 30.1 µM with OVCAR-5 ovarian; 0.45 µM in the test with HCT-15 colon; 2.02 µM in the test with SN12C renal. Further, the GI50 is 9.18 µM with UO-31 renal, 9.4 µM in the test with NCI-H226 lung, 0.397 µM with HT29 colon and 11.5 µM in the test with NCI-H460 lung. For the same molecule, the TGI was more than 100 µM in the test with SW-620 colon; 22 µM with HOP-62 NSCLC; more than 100 µM in the test with HCC-2998 colon; more than 95.8 µM with OVCAR-5 ovarian; more than 100 µM with HCT-15 colon; more than 100 µM with SN12C renal. Besides, the TGI with UO-31 renal is more than 100 µM; with NCI-H226 lung it was more than 100 µM; in the test with HT29 colon, more than 32.4 µM; with NCI-H460 lung, more than 100 µM.
Regarding `c1ccc(CN2COc3c(ccc4c3OCN(Cc3ccccc3)C4)C2)cc1`, the GI50 was 0.494 µM with SW-620 colon; 0.545 µM in the test on HOP-62 NSCLC; 1.21 µM in the test with HCC-2998 colon; 0.857 µM in the test on OVCAR-5 ovarian; 0.0906 µM in the test on HCT-15 colon; 0.559 µM with SN12C renal. Moreover, the GI50 in the test with UO-31 renal was 0.122 µM; with NCI-H226 lung, 0.479 µM; in the test on HT29 colon, 0.955 µM; with NCI-H460 lung, 0.399 µM. Also, the TGI with SW-620 colon, with HOP-62 NSCLC, in the test with HCC-2998 colon, in the test with OVCAR-5 ovarian, with HCT-15 colon and in the test with SN12C renal was more than 100 µM in each case. Further, the TGI with UO-31 renal is 1.41 µM; with NCI-H226 lung it was 5.65 µM; in the test with HT29 colon, more than 100 µM; with NCI-H460 lung it was more than 100 µM.
In the case of `COC(=O)C(C(=O)C(=O)Nc1ccc([N+](=O)[O-])cc1[N+](=O)[O-])c1nc2ccc(Cl)cc2[nH]c1=O` (stereo not given), the TGI in the test with SW-620 colon, in the test with HOP-62 NSCLC, in the test with HCC-2998 colon, in the test with OVCAR-5 ovarian, with HCT-15 colon and with SN12C renal was more than 100 µM throughout. In addition, the TGI in the test with UO-31 renal, with NCI-H226 lung, in the test with HT29 colon and in the test on NCI-H460 lung was more than 100 µM throughout.
As for `C[As](C)SCC(COC(=O)C(Cl)c1ccccc1)OC(=O)C(Cl)c1ccccc1` (stereo not given), the GI50 in the test with SW-620 colon was 0.491 µM; in the test on HOP-62 NSCLC, 6.66 µM; in the test on HCC-2998 colon, 1.72 µM; with OVCAR-5 ovarian, 6.69 µM; in the test on HCT-15 colon, 0.229 µM; with SN12C renal it was 2.48 µM. Further, the GI50 in the test on UO-31 renal is 1.55 µM; in the test with NCI-H226 lung, 20.1 µM; in the test with HT29 colon, 0.754 µM; in the test on NCI-H460 lung, 9.03 µM. Moreover, the TGI was 28.2 µM with SW-620 colon; 21.6 µM with HOP-62 NSCLC; 4.75 µM in the test with HCC-2998 colon; more than 37.2 µM with OVCAR-5 ovarian; 4.02 µM with HCT-15 colon; 10.9 µM with SN12C renal. The TGI in the test with UO-31 renal was more than 44.4 µM; in the test on NCI-H226 lung, 41.8 µM; in the test with HT29 colon, more than 100 µM; with NCI-H460 lung, 33.6 µM.
On to `O=C(c1ccccc1)C(CN1CCCCC1)c1ccccc1` (stereo not given), for which the GI50 was 0.583 µM in the test on SW-620 colon; 2.03 µM with HOP-62 NSCLC; 3.97 µM in the test with HCC-2998 colon; 2.67 µM in the test with OVCAR-5 ovarian; 0.599 µM in the test with HCT-15 colon; 1.79 µM in the test on SN12C renal. The GI50 was 1.58 µM with UO-31 renal, 3.67 µM with NCI-H226 lung, 0.892 µM in the test with HT29 colon and 10.2 µM with NCI-H460 lung. The TGI came out at 2.17 µM in the test on SW-620 colon; 5.9 µM with HOP-62 NSCLC; 12.3 µM with HCC-2998 colon; 5.43 µM in the test with OVCAR-5 ovarian; 2.06 µM in the test on HCT-15 colon; 3.8 µM with SN12C renal. For the same molecule, the TGI in the test with UO-31 renal was 3.07 µM; with NCI-H226 lung, 14.8 µM; with HT29 colon it was 5.67 µM; with NCI-H460 lung, 26.1 µM.
